{"source": "ChEMBL document CHEMBL1201862", "about": "“PubChem BioAssay data set” (2004)", "assay_in_all_cases": "NCI anticancer screen, dose series, 48 h", "key": {"[1]": {"system": "SNB-19"}, "[2]": {"system": "SF-295"}, "[3]": {"system": "HOP-92"}, "[4]": {"system": "SK-OV-3"}, "[5]": {"system": "MDA-N"}, "[6]": {"system": "RPMI-8226"}, "[7]": {"system": "PC-3"}, "[8]": {"system": "OVCAR-4"}, "[9]": {"system": "COLO 205"}, "[10]": {"system": "TK-10"}, "[11]": {"system": "EKVX"}, "[12]": {"system": "HCC 2998"}, "[13]": {"system": "UACC-257"}, "[14]": {"system": "HCT-15"}, "[15]": {"system": "UACC-62"}, "[16]": {"system": "MDA-MB-435"}, "[17]": {"system": "HCT-116"}, "[18]": {"system": "A549"}, "[19]": {"system": "MDA-MB-231"}, "[20]": {"system": "NCI-H23"}}, "note": "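How tested: cells in 96-well plates exposed to compound for 48 hours at five concentrations. Here, GI50 denotes the concentration required for 50% inhibition of growth.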 Active and inactive are the calls of the source. Cut-off read from the data, not from the text of the source: active = GI50 up to about 1.1 µM and inactive = higher."}
{"smiles": "COCN1C(=O)[C@@H]2CCCN2C(=O)c2ccc(N)cc21", "values": [{"measurement": "GI50", "setting": "[1]", "result": "> 100 µM (inactive)"}, {"measurement": "GI50", "setting": "[2]", "result": "> 100 µM (inactive)"}, {"measurement": "GI50", "setting": "[3]", "result": "> 100 µM (inactive)"}, {"measurement": "GI50", "setting": "[4]", "result": "> 100 µM (inactive)"}, {"measurement": "GI50", "setting": "[5]", "result": "> 100 µM (inactive)"}, {"measurement": "GI50", "setting": "[6]", "result": "> 100 µM (inactive)"}, {"measurement": "GI50", "setting": "[7]", "result": "> 100 µM (inactive)"}, {"measurement": "GI50", "setting": "[8]", "result": "> 100 µM (inactive)"}, {"measurement": "GI50", "setting": "[9]", "result": "> 100 µM (inactive)"}, {"measurement": "GI50", "setting": "[10]", "result": "> 100 µM (inactive)"}, {"measurement": "GI50", "setting": "[11]", "result": "> 100 µM (inactive)"}, {"measurement": "GI50", "setting": "[12]", "result": "> 100 µM (inactive)"}, {"measurement": "GI50", "setting": "[13]", "result": "> 100 µM (inactive)"}, {"measurement": "GI50", "setting": "[14]", "result": "> 100", "unit": "µM"}, {"measurement": "GI50", "setting": "[15]", "result": "> 100 µM (inactive)"}, {"measurement": "GI50", "setting": "[16]", "result": "> 100 µM (inactive)"}, {"measurement": "GI50", "setting": "[17]", "result": "> 100 µM (inactive)"}, {"measurement": "GI50", "setting": "[18]", "result": "> 100 µM (inactive)"}, {"measurement": "GI50", "setting": "[19]", "result": "> 100 µM (inactive)"}, {"measurement": "GI50", "setting": "[20]", "result": "> 100 µM (inactive)"}]}
{"smiles": "COC1OC(COC(=O)c2cc(O)c(O)c(O)c2)C(OC(=O)c2cc(O)c(O)c(O)c2)C(OC(=O)c2cc(O)c(O)c(O)c2)C1OC(=O)c1cc(O)c(O)c(O)c1", "note": "(stereo not given)", "values": [{"measurement": "GI50", "setting": "[1]", "result": "43.4 µM (inactive)"}, {"measurement": "GI50", "setting": "[2]", "result": "34.9 µM (inactive)"}, {"measurement": "GI50", "setting": "[3]", "result": "74 µM (inactive)"}, {"measurement": "GI50", "setting": "[4]", "result": "4.78 µM (inactive)"}, {"measurement": "GI50", "setting": "[5]", "result": "27.8 µM (inactive)"}, {"measurement": "GI50", "setting": "[6]", "result": "28.3 µM (inactive)"}, {"measurement": "GI50", "setting": "[7]", "result": "50.7 µM (inactive)"}, {"measurement": "GI50", "setting": "[8]", "result": "41.3 µM (inactive)"}, {"measurement": "GI50", "setting": "[9]", "result": "39.4 µM (inactive)"}, {"measurement": "GI50", "setting": "[10]", "result": "> 100 µM (inactive)"}, {"measurement": "GI50", "setting": "[11]", "result": "25.9 µM (inactive)"}, {"measurement": "GI50", "setting": "[12]", "result": "58.2 µM (inactive)"}, {"measurement": "GI50", "setting": "[13]", "result": "> 100 µM (inactive)"}, {"measurement": "GI50", "setting": "[14]", "result": 47.2, "unit": "µM"}, {"measurement": "GI50", "setting": "[15]", "result": "14.4 µM (inactive)"}, {"measurement": "GI50", "setting": "[16]", "result": "12.9 µM (inactive)"}, {"measurement": "GI50", "setting": "[17]", "result": "33 µM (inactive)"}, {"measurement": "GI50", "setting": "[18]", "result": "33 µM (inactive)"}, {"measurement": "GI50", "setting": "[19]", "result": "26.2 µM (inactive)"}, {"measurement": "GI50", "setting": "[20]", "result": "78.5 µM (inactive)"}]}
{"smiles": "N#CC12C(=O)N3C(=NC(c4ccco4)NC3c3ccco3)C1(C#N)C(c1ccco1)NC1=C2CCCC1", "note": "(stereo not given)", "values": [{"measurement": "GI50", "setting": "[1]", "result": "> 100 µM (inactive)"}, {"measurement": "GI50", "setting": "[2]", "result": "> 100 µM (inactive)"}, {"measurement": "GI50", "setting": "[3]", "result": "> 100 µM (inactive)"}, {"measurement": "GI50", "setting": "[4]", "result": "> 100 µM (inactive)"}, {"measurement": "GI50", "setting": "[5]", "result": "> 100 µM (inactive)"}, {"measurement": "GI50", "setting": "[6]", "result": "> 100 µM (inactive)"}, {"measurement": "GI50", "setting": "[7]", "result": "> 100 µM (inactive)"}, {"measurement": "GI50", "setting": "[8]", "result": "> 100 µM (inactive)"}, {"measurement": "GI50", "setting": "[9]", "result": "> 100 µM (inactive)"}, {"measurement": "GI50", "setting": "[10]", "result": "> 100 µM (inactive)"}, {"measurement": "GI50", "setting": "[11]", "result": "> 100 µM (inactive)"}, {"measurement": "GI50", "setting": "[12]", "result": "> 100 µM (inactive)"}, {"measurement": "GI50", "setting": "[13]", "result": "> 100 µM (inactive)"}, {"measurement": "GI50", "setting": "[14]", "result": "> 100", "unit": "µM"}, {"measurement": "GI50", "setting": "[15]", "result": "> 100 µM (inactive)"}, {"measurement": "GI50", "setting": "[16]", "result": "> 100 µM (inactive)"}, {"measurement": "GI50", "setting": "[17]", "result": "> 100 µM (inactive)"}, {"measurement": "GI50", "setting": "[18]", "result": "> 100 µM (inactive)"}, {"measurement": "GI50", "setting": "[19]", "result": "> 100 µM (inactive)"}, {"measurement": "GI50", "setting": "[20]", "result": "> 100 µM (inactive)"}]}
{"smiles": "C[B@@-]1(c2ccc(C(F)(F)F)cc2)N[C@@H](Cc2ccccc2)C(=O)O1", "values": [{"measurement": "GI50", "setting": "[1]", "result": "> 100 µM (inactive)"}, {"measurement": "GI50", "setting": "[2]", "result": "> 100 µM (inactive)"}, {"measurement": "GI50", "setting": "[3]", "result": "11.9 µM (inactive)"}, {"measurement": "GI50", "setting": "[4]", "result": "> 100 µM (inactive)"}, {"measurement": "GI50", "setting": "[5]", "result": "> 100 µM (inactive)"}, {"measurement": "GI50", "setting": "[6]", "result": "> 100 µM (inactive)"}, {"measurement": "GI50", "setting": "[7]", "result": "> 100 µM (inactive)"}, {"measurement": "GI50", "setting": "[8]", "result": "> 100 µM (inactive)"}, {"measurement": "GI50", "setting": "[9]", "result": "> 100 µM (inactive)"}, {"measurement": "GI50", "setting": "[10]", "result": "> 100 µM (inactive)"}, {"measurement": "GI50", "setting": "[11]", "result": "> 100 µM (inactive)"}, {"measurement": "GI50", "setting": "[12]", "result": "> 100 µM (inactive)"}, {"measurement": "GI50", "setting": "[13]", "result": "> 100 µM (inactive)"}, {"measurement": "GI50", "setting": "[14]", "result": "> 100", "unit": "µM"}, {"measurement": "GI50", "setting": "[15]", "result": "> 100 µM (inactive)"}, {"measurement": "GI50", "setting": "[16]", "result": "> 100 µM (inactive)"}, {"measurement": "GI50", "setting": "[17]", "result": "> 100 µM (inactive)"}, {"measurement": "GI50", "setting": "[18]", "result": "> 100 µM (inactive)"}, {"measurement": "GI50", "setting": "[19]", "result": "> 100 µM (inactive)"}, {"measurement": "GI50", "setting": "[20]", "result": "> 100 µM (inactive)"}]}
{"smiles": "CC(=O)OCC1OC(OC2CC3C(C)(C)C(OC(C)=O)CC[C@]3(C)C3CCC45CC4(CCC5[C@@H](C)C[C@H](O)C(O)C(C)(C)O)[C@]23C)C(O)C(O)C1O", "note": "(stereo not given in full)", "values": [{"measurement": "GI50", "setting": "[1]", "result": "> 10 µM (inactive)"}, {"measurement": "GI50", "setting": "[2]", "result": "> 10 µM (inactive)"}, {"measurement": "GI50", "setting": "[3]", "result": "9.44 µM (inactive)"}, {"measurement": "GI50", "setting": "[4]", "result": "> 10 µM (inactive)"}, {"measurement": "GI50", "setting": "[5]", "result": "> 10 µM (inactive)"}, {"measurement": "GI50", "setting": "[6]", "result": "5.18 µM (inactive)"}, {"measurement": "GI50", "setting": "[7]", "result": "> 10 µM (inactive)"}, {"measurement": "GI50", "setting": "[8]", "result": "> 10 µM (inactive)"}, {"measurement": "GI50", "setting": "[9]", "result": "> 10 µM (inactive)"}, {"measurement": "GI50", "setting": "[10]", "result": "> 10 µM (inactive)"}, {"measurement": "GI50", "setting": "[11]", "result": "> 10 µM (inactive)"}, {"measurement": "GI50", "setting": "[12]", "result": "> 10 µM (inactive)"}, {"measurement": "GI50", "setting": "[13]", "result": "> 10 µM (inactive)"}, {"measurement": "GI50", "setting": "[14]", "result": "> 10", "unit": "µM"}, {"measurement": "GI50", "setting": "[15]", "result": "> 10 µM (inactive)"}, {"measurement": "GI50", "setting": "[16]", "result": "> 10 µM (inactive)"}, {"measurement": "GI50", "setting": "[17]", "result": "> 10 µM (inactive)"}, {"measurement": "GI50", "setting": "[18]", "result": "> 10 µM (inactive)"}, {"measurement": "GI50", "setting": "[19]", "result": "> 10 µM (inactive)"}, {"measurement": "GI50", "setting": "[20]", "result": "> 10 µM (inactive)"}]}
